Source: PubChem BioAssay AID1259347
The source made the active and inactive calls.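 The calls were made as follows: active = compounds raising absorbance, a cell survival measure, over 1.5-fold at the top dose, rising with dose; inactive = the rest.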

Assays:
[1] = tested on: HCT116 Ad-hTR-mut infected, survival, MTT 4 d; assay: survival after telomere uncapping, modulators, dose response, cell-based, HCT116, Ad-hTR-mut infection, MTT (AID 1259347)
[2] = as above; details: HCT116 Ad-hTR-mut infected, survival, MTT 4 d; measured here: second series; at 10 µM; stronger effect = higher value

Structure (SMILES): Cc1ccc(C(=O)Nc2ccc(S(=O)(=O)O)c3cc(S(=O)(=O)O)cc(S(=O)(=O)O)c23)cc1NC(=O)c1cccc(NC(=O)Nc2cccc(C(=O)Nc3cc(C(=O)Nc4ccc(S(=O)(=O)O)c5cc(S(=O)(=O)O)cc(S(=O)(=O)O)c45)ccc3C)c2)c1
- EC50 [1]: < 10 µM
- fold survival [2]: 2.65

Structure (SMILES): C/C(=C\C(=O)Nc1ccccc1C(=O)O)c1ccc2ccccc2c1
- EC50 [1]: > 0.1 µM (inactive)

Structure (SMILES): Cc1nc2cc(-c3ccc(Br)cc3)nn2c(C)c1CCC(=O)O
- EC50 [1]: < 10 µM
- fold survival [2]: 1.44
